Data reported in ChEMBL document CHEMBL1240489, “Discovery of N-{1-[3-(3-oxo-2,3-dihydrobenzo[1,4]oxazin-4-yl)propyl]piperidin-4-yl}-2-phenylacetamide (Lu AE51090): an allosteric muscarinic M1 receptor agonist with unprecedented selectivity and procognitive potential” (J Med Chem, 2010).
Active and inactive are the calls of the source. No cut-off for these calls is given here.

Experiments:
[1] = biological target: Beta-1 adrenergic receptor (Homo sapiens, UniProt P08588); experiment: Binding affinity to human adrenergic beta-1 receptor by radioligand displacement assay
Adenosine receptor A1 = Adenosine receptor A1 (Homo sapiens, UniProt P30542); experiment: Binding affinity to human adenosine A1 receptor by radioligand displacement assay
Histamine H1 receptor = Histamine H1 receptor (Homo sapiens, UniProt P35367); experiment: Binding affinity to human histamine H1 receptor by radioligand displacement assay
Rattus norvegicus = organism: Rattus norvegicus; experiment: Hepatic blood flow in rat; assay type: ADME, organism-based, Liver
Hepatocyte [2] = experiment: Intrinsic clearance in human hepatocytes at 1 uM after up to 120 mins by LC/MS-MS analysis; assay type: ADME, cell-based, Liver; details: 2 h
[3] = biological target: Amine oxidase [flavin-containing] A (Homo sapiens, UniProt P21397); experiment: Binding affinity to MAOA by radioligand displacement assay
[4] = biological target: Alpha-2A adrenergic receptor (Homo sapiens, UniProt P08913); experiment: Binding affinity to human adrenergic alpha2A receptor by radioligand displacement assay
Melanocortin receptor 4 = Melanocortin receptor 4 (Homo sapiens, UniProt P32245); experiment: Binding affinity to human MC4 receptor by radioligand displacement assay
[5] = biological target: Mitogen-activated protein kinase 14 (Homo sapiens, UniProt Q16539); experiment: Binding affinity to p38alpha by enzyme assay
[6] = Drug level in C57/6J mouse brain at 20 mg/kg, sc after 60 mins; assay type: ADME, organism-based; set-up: dose 20 mg/kg, route subcutaneous; details: read-out: Activity
[7] = biological target: T1, Muscarinic acetylcholine receptor M2 (Homo sapiens, UniProt P08172); experiment: Binding affinity to human muscarinic M2 receptor by radioligand displacement assay
T1 sequence (P08172 whole entry): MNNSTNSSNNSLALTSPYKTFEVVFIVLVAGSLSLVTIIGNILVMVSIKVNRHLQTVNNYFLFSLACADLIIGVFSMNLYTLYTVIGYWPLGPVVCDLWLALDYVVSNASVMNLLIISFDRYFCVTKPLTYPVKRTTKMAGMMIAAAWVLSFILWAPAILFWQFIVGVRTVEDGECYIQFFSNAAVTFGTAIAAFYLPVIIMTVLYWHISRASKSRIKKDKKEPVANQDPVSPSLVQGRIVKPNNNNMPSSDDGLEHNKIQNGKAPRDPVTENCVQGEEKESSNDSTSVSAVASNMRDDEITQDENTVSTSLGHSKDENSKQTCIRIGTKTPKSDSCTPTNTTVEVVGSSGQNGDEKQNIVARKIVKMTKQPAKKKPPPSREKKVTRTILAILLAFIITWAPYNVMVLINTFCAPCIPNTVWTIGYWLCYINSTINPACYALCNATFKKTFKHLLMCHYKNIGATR

[8] = biological target: 5-hydroxytryptamine receptor 7 (Homo sapiens, UniProt P34969); experiment: Binding affinity to human 5-HT7 receptor by radioligand displacement assay
[9] = biological target: Sodium-dependent noradrenaline transporter (Homo sapiens, UniProt P23975); experiment: Binding affinity to human NE transporter by radioligand displacement assay
[10] = biological target: T2, Muscarinic acetylcholine receptor M5 (Homo sapiens) (UniProt P08912); experiment: Agonist activity at human muscarinic M5 receptor expressed in BHK-21 cells assessed as increase of acetylcholine-induced calcium flux at 10 uM by FLIPR assay relative to acetylcholine; assay type: functional, cell-based
T2 sequence (whole entry): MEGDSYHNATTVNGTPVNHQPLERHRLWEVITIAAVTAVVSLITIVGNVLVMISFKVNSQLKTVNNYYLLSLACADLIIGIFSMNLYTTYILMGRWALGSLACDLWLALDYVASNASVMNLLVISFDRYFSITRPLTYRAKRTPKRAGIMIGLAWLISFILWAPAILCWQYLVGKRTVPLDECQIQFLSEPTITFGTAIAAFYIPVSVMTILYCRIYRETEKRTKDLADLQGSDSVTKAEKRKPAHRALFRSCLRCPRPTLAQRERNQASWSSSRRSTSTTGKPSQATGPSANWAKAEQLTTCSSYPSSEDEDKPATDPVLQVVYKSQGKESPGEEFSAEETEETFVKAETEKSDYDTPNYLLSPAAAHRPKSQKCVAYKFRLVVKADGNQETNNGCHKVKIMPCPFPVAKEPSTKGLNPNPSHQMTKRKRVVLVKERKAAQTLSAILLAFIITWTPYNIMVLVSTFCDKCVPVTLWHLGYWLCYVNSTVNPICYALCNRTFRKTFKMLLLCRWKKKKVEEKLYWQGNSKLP

[11] = biological target: Ribosyldihydronicotinamide dehydrogenase [quinone] (Homo sapiens, UniProt P16083); experiment: Binding affinity to ML2 (MT3) receptor by radioligand displacement assay
Glucocorticoid receptor = Glucocorticoid receptor (Homo sapiens, UniProt P04150); experiment: Binding affinity to human glucocorticoid receptor by radioligand displacement assay
Mu-type opioid receptor = Mu-type opioid receptor (Homo sapiens, UniProt P35372); experiment: Binding affinity to human mu opioid receptor agonist site by radioligand displacement assay
[12] = Binding affinity to NMDA receptor PCP binding site by radioligand displacement assay
[13] = biological target: T3, Muscarinic acetylcholine receptor M1 (Homo sapiens, UniProt P11229); experiment: Binding affinity to human muscarinic M1 receptor by radioligand displacement assay
T3 sequence (P11229 whole entry): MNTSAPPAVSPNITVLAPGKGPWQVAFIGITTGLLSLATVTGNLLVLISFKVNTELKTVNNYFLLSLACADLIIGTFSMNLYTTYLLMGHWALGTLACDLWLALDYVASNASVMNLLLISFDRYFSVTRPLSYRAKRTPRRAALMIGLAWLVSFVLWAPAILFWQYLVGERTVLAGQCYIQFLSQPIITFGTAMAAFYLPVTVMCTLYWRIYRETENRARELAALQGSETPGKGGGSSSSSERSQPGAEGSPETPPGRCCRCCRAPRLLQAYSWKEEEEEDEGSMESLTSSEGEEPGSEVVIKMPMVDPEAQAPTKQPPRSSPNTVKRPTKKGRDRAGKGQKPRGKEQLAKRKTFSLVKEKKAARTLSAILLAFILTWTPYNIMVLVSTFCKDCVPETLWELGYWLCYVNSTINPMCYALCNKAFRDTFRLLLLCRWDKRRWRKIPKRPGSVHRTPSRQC

Mus musculus = experiment: Reversal of 60 seconds delay-induced memory decay in C57Bl/6J mouse assessed as positive alteration at 0.31 to […], sc for 1 week by Y-maze test; assay type: functional, organism-based
Hepatocyte [14] = experiment: Intrinsic clearance in rat hepatocytes at 1 uM after up to 60 mins by LC/MS-MS analysis; assay type: ADME, cell-based, Liver; details: 1 h
[15] = biological target: Melatonin receptor type 1A (Homo sapiens, UniProt P48039); experiment: Binding affinity to human MT1 receptor by radioligand displacement assay
[16] = biological target: Muscarinic acetylcholine receptor M3 (Homo sapiens, UniProt P20309); experiment: Binding affinity to human muscarinic M3 receptor by radioligand displacement assay
[17] = Binding affinity to PDE4 by enzyme assay
D(4) dopamine receptor = D(4) dopamine receptor (Homo sapiens, UniProt P21917); experiment: Binding affinity to human D4.4 receptor by radioligand displacement assay
Chain of D(4) dopamine receptor (P21917 whole entry): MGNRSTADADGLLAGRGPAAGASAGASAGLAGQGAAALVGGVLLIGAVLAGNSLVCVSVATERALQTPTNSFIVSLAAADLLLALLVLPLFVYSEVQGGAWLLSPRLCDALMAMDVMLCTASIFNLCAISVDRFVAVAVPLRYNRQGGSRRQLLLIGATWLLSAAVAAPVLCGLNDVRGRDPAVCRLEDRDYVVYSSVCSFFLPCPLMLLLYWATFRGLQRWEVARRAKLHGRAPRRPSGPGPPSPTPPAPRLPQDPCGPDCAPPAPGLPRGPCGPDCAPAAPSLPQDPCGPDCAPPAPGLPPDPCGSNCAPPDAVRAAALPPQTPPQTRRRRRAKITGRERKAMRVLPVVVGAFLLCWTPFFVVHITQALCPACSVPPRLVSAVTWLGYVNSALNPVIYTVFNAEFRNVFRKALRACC

Chain of Alpha-2A adrenergic receptor (P08913 whole entry): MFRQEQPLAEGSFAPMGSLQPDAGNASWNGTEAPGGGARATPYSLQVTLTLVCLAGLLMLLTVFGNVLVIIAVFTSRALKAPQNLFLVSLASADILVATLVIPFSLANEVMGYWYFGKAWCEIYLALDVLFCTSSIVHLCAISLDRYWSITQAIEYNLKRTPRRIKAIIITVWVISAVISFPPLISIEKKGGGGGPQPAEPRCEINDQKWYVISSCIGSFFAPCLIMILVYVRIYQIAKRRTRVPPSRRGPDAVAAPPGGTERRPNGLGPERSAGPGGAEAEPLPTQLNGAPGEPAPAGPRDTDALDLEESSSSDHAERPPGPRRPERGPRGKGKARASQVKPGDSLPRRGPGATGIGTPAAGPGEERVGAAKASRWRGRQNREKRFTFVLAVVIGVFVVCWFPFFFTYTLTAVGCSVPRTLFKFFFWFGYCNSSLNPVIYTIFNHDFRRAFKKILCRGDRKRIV
Chain of Glucocorticoid receptor (P04150 whole entry): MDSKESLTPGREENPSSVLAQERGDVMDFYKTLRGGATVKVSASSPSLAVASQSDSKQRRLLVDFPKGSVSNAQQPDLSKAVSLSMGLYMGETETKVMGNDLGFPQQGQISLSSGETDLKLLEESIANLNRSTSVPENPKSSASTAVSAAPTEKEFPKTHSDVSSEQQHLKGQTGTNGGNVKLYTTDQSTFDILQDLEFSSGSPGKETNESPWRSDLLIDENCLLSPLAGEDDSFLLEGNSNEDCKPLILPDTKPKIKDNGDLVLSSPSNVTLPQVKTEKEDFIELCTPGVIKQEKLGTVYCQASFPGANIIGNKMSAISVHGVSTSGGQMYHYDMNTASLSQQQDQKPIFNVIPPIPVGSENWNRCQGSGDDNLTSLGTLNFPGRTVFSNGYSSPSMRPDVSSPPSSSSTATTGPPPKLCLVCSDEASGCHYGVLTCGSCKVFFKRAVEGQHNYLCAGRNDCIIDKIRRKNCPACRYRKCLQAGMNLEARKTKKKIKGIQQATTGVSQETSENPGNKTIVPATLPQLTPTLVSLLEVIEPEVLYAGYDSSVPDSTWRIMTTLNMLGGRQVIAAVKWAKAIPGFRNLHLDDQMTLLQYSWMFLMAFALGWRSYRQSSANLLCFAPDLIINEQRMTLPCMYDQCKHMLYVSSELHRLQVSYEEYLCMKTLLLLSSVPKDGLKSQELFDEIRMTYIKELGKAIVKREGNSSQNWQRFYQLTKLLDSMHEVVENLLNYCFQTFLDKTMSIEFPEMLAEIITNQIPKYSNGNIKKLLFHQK
Chain of Amine oxidase [flavin-containing] A (P21397 whole entry): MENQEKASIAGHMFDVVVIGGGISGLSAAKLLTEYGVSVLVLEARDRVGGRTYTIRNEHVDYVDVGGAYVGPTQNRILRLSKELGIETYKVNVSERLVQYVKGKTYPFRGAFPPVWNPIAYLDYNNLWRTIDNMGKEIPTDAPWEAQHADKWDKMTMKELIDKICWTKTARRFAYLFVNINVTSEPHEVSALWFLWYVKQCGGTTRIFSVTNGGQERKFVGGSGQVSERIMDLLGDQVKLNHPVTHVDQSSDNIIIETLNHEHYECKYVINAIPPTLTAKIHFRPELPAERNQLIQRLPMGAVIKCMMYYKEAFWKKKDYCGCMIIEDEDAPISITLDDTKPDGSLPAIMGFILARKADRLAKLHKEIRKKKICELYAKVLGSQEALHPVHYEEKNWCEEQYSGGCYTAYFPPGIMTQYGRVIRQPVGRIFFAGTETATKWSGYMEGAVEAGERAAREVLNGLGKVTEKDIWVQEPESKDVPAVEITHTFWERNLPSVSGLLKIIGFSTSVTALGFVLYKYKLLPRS
Chain of Histamine H1 receptor (P35367 whole entry): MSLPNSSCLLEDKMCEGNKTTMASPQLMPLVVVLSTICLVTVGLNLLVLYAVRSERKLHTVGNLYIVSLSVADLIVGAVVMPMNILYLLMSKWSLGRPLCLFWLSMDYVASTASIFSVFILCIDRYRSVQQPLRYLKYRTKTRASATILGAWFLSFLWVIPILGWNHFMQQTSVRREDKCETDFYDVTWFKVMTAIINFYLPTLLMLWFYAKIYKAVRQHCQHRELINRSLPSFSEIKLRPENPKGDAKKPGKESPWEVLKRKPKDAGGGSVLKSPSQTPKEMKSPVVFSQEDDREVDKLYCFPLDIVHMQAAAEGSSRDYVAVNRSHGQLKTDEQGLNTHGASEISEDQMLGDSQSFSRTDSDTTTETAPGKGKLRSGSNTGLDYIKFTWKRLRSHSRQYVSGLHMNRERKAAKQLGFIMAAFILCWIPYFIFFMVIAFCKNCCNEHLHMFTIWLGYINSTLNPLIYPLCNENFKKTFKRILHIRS
Chain of 5-hydroxytryptamine receptor 7 (P34969 whole entry): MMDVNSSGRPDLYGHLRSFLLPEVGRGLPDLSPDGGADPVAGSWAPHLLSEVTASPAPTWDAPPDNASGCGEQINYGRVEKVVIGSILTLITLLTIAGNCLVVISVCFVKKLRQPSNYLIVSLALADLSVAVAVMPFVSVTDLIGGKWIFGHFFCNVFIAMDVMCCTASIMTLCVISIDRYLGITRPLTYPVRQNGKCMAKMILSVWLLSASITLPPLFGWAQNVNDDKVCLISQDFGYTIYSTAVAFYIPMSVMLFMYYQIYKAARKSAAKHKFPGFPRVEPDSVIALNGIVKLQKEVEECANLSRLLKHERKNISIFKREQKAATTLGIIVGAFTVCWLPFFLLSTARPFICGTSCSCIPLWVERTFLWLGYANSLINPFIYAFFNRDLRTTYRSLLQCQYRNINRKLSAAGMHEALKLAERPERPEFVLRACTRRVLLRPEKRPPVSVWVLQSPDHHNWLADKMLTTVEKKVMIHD
Chain of Beta-1 adrenergic receptor (P08588 whole entry): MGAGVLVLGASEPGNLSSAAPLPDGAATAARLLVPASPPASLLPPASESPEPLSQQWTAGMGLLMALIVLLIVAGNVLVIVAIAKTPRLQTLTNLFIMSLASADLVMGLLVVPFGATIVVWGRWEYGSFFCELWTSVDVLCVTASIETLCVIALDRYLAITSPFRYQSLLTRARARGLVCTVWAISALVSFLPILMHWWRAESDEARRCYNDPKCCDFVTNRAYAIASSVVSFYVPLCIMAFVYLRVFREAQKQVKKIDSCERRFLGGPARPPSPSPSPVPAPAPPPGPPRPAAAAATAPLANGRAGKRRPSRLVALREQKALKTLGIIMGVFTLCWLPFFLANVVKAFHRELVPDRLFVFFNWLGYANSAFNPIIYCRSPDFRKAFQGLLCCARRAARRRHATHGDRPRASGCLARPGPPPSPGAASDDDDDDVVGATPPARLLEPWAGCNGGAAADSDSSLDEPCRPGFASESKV
Chain of Sodium-dependent noradrenaline transporter (P23975 whole entry): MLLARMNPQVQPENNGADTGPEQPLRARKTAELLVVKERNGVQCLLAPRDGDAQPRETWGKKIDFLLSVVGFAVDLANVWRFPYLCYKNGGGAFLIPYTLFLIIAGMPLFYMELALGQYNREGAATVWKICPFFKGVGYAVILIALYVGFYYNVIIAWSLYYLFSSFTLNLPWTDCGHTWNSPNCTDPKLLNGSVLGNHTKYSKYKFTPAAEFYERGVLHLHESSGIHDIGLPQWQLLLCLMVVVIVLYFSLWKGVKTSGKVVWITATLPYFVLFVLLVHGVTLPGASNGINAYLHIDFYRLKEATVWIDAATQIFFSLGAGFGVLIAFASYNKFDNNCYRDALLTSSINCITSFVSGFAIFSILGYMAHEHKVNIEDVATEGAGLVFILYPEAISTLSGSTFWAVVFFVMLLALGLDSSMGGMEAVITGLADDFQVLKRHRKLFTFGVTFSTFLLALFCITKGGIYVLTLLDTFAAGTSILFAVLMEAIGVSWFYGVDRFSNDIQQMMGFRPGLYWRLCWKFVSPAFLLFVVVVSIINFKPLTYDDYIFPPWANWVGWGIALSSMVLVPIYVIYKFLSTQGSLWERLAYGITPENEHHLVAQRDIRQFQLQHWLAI
Chain of Mu-type opioid receptor (P35372 whole entry): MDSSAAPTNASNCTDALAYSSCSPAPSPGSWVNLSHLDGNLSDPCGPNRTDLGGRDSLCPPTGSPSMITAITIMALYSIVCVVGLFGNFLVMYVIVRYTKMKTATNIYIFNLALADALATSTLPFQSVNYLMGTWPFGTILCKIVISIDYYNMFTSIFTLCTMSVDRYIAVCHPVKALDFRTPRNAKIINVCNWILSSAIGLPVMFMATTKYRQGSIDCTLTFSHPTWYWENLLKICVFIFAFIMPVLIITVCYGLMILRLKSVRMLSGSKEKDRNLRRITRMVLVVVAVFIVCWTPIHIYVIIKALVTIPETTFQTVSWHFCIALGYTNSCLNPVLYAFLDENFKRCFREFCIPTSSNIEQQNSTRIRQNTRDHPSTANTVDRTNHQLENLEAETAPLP
Chain of Ribosyldihydronicotinamide dehydrogenase [quinone] (P16083 whole entry): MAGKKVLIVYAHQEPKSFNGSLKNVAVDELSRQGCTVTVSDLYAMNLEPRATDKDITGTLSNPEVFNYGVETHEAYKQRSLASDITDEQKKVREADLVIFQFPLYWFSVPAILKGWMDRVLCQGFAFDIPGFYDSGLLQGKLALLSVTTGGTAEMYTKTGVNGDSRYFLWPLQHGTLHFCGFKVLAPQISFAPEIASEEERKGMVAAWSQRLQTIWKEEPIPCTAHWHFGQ

Structure (SMILES): O=C(Cc1ccccc1)NC1CCN(CCCN2C(=O)COc3ccccc32)CC1
- Ki [1]: ≥ 1000 nM
- Ki (Adenosine receptor A1): ≥ 1000 nM
- Ki (Histamine H1 receptor): 780 nM
- QH (Rattus norvegicus): 20 mL/min
- CL (Hepatocyte [2]): 3.4 L/min
- Ki [3]: ≥ 1000 nM
- Ki [4]: ≥ 1000 nM
- Ki (Melanocortin receptor 4): ≥ 1000 nM
- Ki [5]: ≥ 1000 nM
- concentration at 1 h [6]: 240 ng/g
- Ki [7]: ≥ 1000 nM
- Ki [8]: ≥ 1000 nM
- Ki [9]: ≥ 1000 nM
- Emax [10]: 1%
- Ki [11]: ≥ 1000 nM
- Ki (Glucocorticoid receptor): ≥ 1000 nM
- Ki (Mu-type opioid receptor): ≥ 1000 nM
- Ki [12]: ≥ 1000 nM
- Ki [13]: ≥ 1000 nM
- Activity (Mus musculus): inactive
- CL (Hepatocyte [14]): 100 mL/min
- Ki [15]: ≥ 1000 nM
- Ki [16]: ≥ 1000 nM
- Ki [17]: ≥ 1000 nM
- Ki (D(4) dopamine receptor): ≥ 1000 nM
